Assay results as given in ChEMBL document CHEMBL1201862, “PubChem BioAssay data set” (2004).
One block for each compound: values may come before it. The source made the active and inactive calls.

Legend:
[1] = biological target: T1, Short transient receptor potential channel 4 (Mus musculus, UniProt Q9QUQ5); assay: mouse TRPC4 channel activators, dose response, cell-based, HEK293 TRPC4/mu-opioid, Fluo-4 calcium (AID 434937); assay type: functional
T1 sequence (Q9QUQ5 whole entry): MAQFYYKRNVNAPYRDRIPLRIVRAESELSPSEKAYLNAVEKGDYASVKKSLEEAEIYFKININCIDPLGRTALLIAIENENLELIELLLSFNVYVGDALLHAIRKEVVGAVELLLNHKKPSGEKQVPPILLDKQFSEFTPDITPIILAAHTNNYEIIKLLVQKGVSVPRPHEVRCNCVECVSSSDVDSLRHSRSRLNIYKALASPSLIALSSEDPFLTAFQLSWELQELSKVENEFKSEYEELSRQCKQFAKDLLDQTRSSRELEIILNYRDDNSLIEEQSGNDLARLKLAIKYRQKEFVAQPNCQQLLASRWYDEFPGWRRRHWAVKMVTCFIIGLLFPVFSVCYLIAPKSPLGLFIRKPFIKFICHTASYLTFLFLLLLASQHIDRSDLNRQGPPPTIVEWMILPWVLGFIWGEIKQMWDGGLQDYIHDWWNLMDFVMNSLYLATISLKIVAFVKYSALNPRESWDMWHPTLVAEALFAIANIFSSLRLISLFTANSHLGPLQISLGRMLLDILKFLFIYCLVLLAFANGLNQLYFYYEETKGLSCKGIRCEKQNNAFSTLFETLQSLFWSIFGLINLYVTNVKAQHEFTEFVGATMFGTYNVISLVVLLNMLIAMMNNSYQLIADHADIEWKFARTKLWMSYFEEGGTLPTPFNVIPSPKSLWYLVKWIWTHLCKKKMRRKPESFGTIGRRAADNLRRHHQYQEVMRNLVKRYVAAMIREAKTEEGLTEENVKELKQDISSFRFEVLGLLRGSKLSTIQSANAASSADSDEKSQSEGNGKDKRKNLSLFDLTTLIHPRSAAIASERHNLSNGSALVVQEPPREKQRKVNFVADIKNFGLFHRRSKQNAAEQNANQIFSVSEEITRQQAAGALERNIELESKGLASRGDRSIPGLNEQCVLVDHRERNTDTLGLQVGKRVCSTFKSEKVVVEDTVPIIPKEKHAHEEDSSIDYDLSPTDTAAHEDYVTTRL

cells [2] = assay type: functional, cell-based
cells [3] = assay type: functional, cell-based; remark: listed apart in the source
[4] = biological target: T2, Trace amine-associated receptor 1 (Homo sapiens, UniProt Q96RJ0); assay: Fluorescence-based cell-based high throughput dose response assay to identify agonists of the human trace amine associated receptor 1 (TAAR1).; assay type: functional
T2 sequence (Q96RJ0 whole entry): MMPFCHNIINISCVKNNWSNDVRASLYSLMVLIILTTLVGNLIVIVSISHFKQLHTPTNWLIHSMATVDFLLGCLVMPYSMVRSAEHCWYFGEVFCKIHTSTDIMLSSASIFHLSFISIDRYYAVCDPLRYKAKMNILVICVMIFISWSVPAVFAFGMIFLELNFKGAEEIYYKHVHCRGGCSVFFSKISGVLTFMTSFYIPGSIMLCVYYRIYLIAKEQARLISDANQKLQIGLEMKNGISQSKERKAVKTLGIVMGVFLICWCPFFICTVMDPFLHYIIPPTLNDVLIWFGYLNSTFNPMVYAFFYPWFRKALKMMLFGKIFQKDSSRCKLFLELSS

[5] = biological target: T2, Trace amine-associated receptor 1; assay: Counterscreen for agonists of the human trace amine associated receptor 1 (hTAAR1): Fluorescence-based cell-based high throughput dose response assay to identify hTAAR1 agonist that also desensitize TAAR1 receptor response.; assay type: functional
[6] = biological target: T3, Corticotropin-releasing factor receptor 2/Corticotropin-releasing factor-binding protein (Homo sapiens, UniProt P24387+Q13324); assay: activators of CRF receptor 2 with binding protein – uHTS hits, confirmation (AID 602473); assay type: functional; settings: read-out: EC50_Mean
T3 sequence (Q13324 whole entry): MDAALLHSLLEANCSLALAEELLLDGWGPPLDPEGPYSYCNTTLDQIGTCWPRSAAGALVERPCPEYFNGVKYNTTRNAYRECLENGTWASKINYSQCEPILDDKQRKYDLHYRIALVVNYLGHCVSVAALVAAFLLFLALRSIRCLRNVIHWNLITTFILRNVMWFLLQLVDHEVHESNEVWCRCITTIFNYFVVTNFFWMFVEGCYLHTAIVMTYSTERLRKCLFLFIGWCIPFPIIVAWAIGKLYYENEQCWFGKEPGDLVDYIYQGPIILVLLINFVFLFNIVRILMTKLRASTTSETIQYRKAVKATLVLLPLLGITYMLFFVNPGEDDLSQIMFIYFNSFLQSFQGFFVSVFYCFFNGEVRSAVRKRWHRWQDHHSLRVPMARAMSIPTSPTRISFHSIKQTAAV
T3 sequence (P24387 whole entry): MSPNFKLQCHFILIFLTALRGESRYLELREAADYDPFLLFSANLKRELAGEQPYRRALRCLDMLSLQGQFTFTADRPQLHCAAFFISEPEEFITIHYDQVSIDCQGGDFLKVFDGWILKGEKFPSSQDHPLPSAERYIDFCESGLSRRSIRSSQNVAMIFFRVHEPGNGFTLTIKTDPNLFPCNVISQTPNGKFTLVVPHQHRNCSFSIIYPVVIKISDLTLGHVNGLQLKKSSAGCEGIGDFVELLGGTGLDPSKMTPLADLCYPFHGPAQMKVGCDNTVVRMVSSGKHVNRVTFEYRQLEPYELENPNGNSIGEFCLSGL

Troponin, cardiac muscle = Troponin, cardiac muscle (Homo sapiens, UniProt P19429+P45379+P63316); assay: Fluorescence-based biochemical high throughput dose response assay for activators of the calcium sensitivity of cardiac Regulated Thin Filaments (RTF). [Related pubchem assays (depositor defined):AID493008, AID493018, AID504382, AID504383]; assay type: protein-complex assay
Escherichia coli [7] = assay: microbe, parasite or virus in culture
Escherichia coli [8] = assay: microbe, parasite or virus in culture; remark: listed apart in the source
Cytochrome P450 3A4 [9] = biological target: T4, Cytochrome P450 3A4 (Homo sapiens, UniProt P08684);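 note: CYP3A4 tested as one member of a cytochrome P450 panel screen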
T4 sequence (P08684 whole entry): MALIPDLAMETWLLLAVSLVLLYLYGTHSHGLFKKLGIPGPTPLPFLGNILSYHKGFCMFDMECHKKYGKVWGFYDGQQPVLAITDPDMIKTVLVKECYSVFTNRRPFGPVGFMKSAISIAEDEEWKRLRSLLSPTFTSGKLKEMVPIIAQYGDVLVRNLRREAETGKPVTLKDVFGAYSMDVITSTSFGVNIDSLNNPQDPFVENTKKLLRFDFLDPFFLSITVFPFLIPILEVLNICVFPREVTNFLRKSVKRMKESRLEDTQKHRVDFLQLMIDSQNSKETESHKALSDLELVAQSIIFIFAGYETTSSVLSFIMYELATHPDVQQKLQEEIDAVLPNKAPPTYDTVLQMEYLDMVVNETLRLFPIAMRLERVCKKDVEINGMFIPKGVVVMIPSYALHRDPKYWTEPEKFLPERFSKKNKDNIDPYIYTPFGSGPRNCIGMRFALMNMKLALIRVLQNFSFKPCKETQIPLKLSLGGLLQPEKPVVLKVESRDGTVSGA

Cytochrome P450 2D6 = Cytochrome P450 2D6 (Homo sapiens, UniProt P10635);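 note: CYP2D6 member of a cytochrome P450 panel assay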
Cytochrome P450 2D6, sequence (P10635 whole entry): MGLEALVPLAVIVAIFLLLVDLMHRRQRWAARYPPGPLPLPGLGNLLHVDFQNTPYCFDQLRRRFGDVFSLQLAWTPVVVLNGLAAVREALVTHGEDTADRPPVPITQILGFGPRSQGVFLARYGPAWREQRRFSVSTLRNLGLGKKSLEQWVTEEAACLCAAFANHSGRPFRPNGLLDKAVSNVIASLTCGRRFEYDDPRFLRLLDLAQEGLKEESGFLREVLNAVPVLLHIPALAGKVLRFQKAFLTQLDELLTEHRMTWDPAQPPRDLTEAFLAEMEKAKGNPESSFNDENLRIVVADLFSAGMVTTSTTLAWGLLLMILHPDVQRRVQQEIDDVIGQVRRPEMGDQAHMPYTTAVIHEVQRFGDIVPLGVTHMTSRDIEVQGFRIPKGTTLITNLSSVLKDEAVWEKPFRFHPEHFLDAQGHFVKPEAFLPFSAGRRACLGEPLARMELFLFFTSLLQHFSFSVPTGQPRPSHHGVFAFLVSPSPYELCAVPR

Cytochrome P450 3A4 [10] = biological target: T4, Cytochrome P450 3A4; remark: listed apart in the source
INS1 = assay: beta cell apoptosis inhibitors, cytokine rescue, dose response, luminescence, retest (AID 449756); assay type: functional, cell-based; settings: Rattus norvegicus;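 note: cell death triggered by IL-1 beta plus TNF-alpha plus IFN-gamma mixture; protective hits raise ATP signal compared with cytokine alone wells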

Structure (SMILES): Clc1ccc(OCCNCCc2ccccc2)cc1
EC50 [1]: 4.73 µM (active)
IC50 (cells [2]): > 29.9 µM (inactive)
EC50 (cells [3]): 21.9 µM (inactive)
EC50 [4]: 3.81 µM (active)
IC50 [5]: 9.59 µM (active)

EC50 [6]: 22.2 µM (active)
EC50 (Troponin, cardiac muscle): 17.9 µM (inactive)
Structure (SMILES): Cc1ccc(N2C(=O)C3C(C(=O)c4ccccc4)=NN(c4ccccc4)C3C2=O)cc1 (stereo unspecified)

Structure (SMILES): CCOC(=O)N1CCC(NC(=O)c2oc3c(c2C)-c2n[nH]cc2CC3)CC1
AC50 (Escherichia coli [7]): 18.4 µM (active)
AC50 (Escherichia coli [8]): 67 µM (active)

AC50 (Cytochrome P450 3A4 [9]): inconclusive
Structure (SMILES): O=[N+]([O-])c1ccc(CSc2ncnc3c2ncn3[C@@H]2O[C@@H](CO)[C@@H](O)[C@H]2O)cc1

AC50 (Cytochrome P450 2D6): inconclusive
AC50 (Cytochrome P450 3A4 [10]): 5.01 µM (inconclusive)
Structure (SMILES): CO[C@@H]1COC(=O)[C@@H](C)NC(=O)C/C=C\[C@@H](C)[C@H](NS(=O)(=O)c2ccc(C)cc2)COC(=O)[C@H](C)NC(=O)C/C=C\[C@H]1C

Structure (SMILES): CC1(C)CCN2CCC(C)(C)c3c(O)ccc1c32
AC50 (INS1): 7.71 µM (active)
EC50 (Troponin, cardiac muscle): 3.33 µM (active)

Structure (SMILES): O=C(N/N=C/C1=C(N2CCOCC2)C(=C\c2ccccc2)/CC1)Nc1ccccc1
AC50 (Escherichia coli [8]): 67.6 µM (active)

Structure (SMILES): CCc1n[nH]c(CCN)n1
EC50 [1]: 3.76 µM (active)
